Experimental data as given in patent US5177251A, “Halogenated tetraenyl prostaglandin derivatives” (G. D. Searle & Co., priority 1991, dated 1993).

How the values were obtained:
[1] = Acid stability in acetic acid:THF:water, thin layer chromatography; format: physicochemical; details: 3:1:1 acetic acid:THF:water, room temperature, TLC, all time points
Experimental: Comparison of Acid Stability of Compound of Example 1 with its parent non-fluorinated analog.
Each compound (4 mg) was separately dissolved in 0.4 ml of a 3:1:1 solution of acetic acid:THF:water and kept at room temperature. Relative decomposition was assessed by thin layer chromatography analysis of aliquots withdrawn at 30 minutes, 1,2, 4 and 6 hours.

[2] = system: ethanol-induced gastric lesions; assay: Ethanol induced gastric lesion assay in rats (cytoprotective); format: in vivo, male Charles River rats; details: rat, oral, 30 minutes before absolute ethanol; read-out: Ethanol-Induced Gastric Lesion *MED (Minimal effective dose)
Experimental: In the assay, 0.005-0.5 mg/kg is orally administered to adult 180-220 gram male Charles River rats which have been deprived of food for 24 hours. Thirty minutes later, 1.0 ml of absolute ethanol is administered intragastrically. The rats are sacrificed 60 minutes after alcohol administration and the gastric mucosa are visually examined for the presence of lesions. The number and severity of lesions are scored. A compound is judged active at the concentration evaluated if it provides a statistically significant reduction in the number and/or severity of lesions compared to the control group.

diarrhea = assay: Diarrheal assay in rats; format: in vivo, male Charles River rats; details: intragastric, up to 8 hours
Experimental: (§1) Diarrhea is an undesirable side effect commonly associated with antisecretory and cytoprotective prostaglandins. […] Groups of 6 adult male Charles River rats weight rang®180 to 200 g, are fasted for 24 hours prior to administering the test substance. The prostaglandin to be tested is administered intragastrically in iso-osmotic phosphate buffer at a volume of 10 ml/kg at doses ranging from 100 to 3000 μg/kg. Control animals receive only the vehicle. The rats are placed in individual wire mesh cages and t he trays lined with brown paper. Diarrhea is assessed at hourly intervals on all or none basis for up to 8 hours after administration of the prostaglandin. Diarrhea is defined as any loose or watery stool. ED50 values are assessed for each hourly diarrheagenic response.

gastric acid secretion = assay: Gastric acid secretion assay in dogs (Pavlov gastric pouch, meal-stimulated); format: in vivo, dog (adult female beagles); details: into gastric pouch; for ED50: Canis lupus familiaris, dog, total acid output over 4 hours after feeding, read-out: Gastric Antisecretory (Dog) ED50; for Gastric Antisecretory (Dog), % inhibition at 0.3: at 0.3 (column unit μg/kg)
From the text: The standard test used to detect gastric antisecretory activity is described as follows.
Adult female beagles, 6-11 kg body weight, were surgically prepared with innervated (Pavlov) gastric pouches that were drained by Thomas-type gastric cannulae. Following surgical recovery, each dog was trained to stand quietly in a dog restraining sling and was conscious for all studies. Experiments began at least 3 weeks after surgery, and no dog was used more than once per week.
Dogs were food-deprived with access to water for 24 hours prior to experiments. Following a 30 minute basal collection period, the prostaglandins or vehicle were administered into the gastric pouch in a 2-3 ml volume. Thirty minutes later the gastric pouch was emptied and gastric secretion was stimulated by feeding 10-12 oz of dog food (Fromm All Beef, Federal Foods Inc., Thiensville, Wis.). Gastric juice samples were collected from the pouch by gravity drainage over a 4 hour period at 30 minute intervals. The volume of secretion was measured (ml/30 min), and the acidity (mequiv/L) was determined by electrometric titration to pH 7.0 with 0.1 N NaOH. These two parameters were multiplied to obtain the total acid output (mequiv/30 minutes) for each collection period.
Percent reduction of total acid output from control was calculated over each 4 hour experiment for doses of prostaglandin. ED50 values and 95% confidence limits were determined from inhibition of secretion curves.

Diarrheal assay in rats = format: in vivo, male Charles River rats; details: in vivo, po; rat, intragastric, up to 8 hours; read-out: Diarrhea Rat ED50
Experimental: as §1

SMILES | decomposition at 30 minutes, 1, 2, 4 and 6 hours [1] | minimal effective dose [2] | Diarrhea Rat ED50 (diarrhea) | ED50 (gastric acid secretion) | Gastric Antisecretory (Dog), % inhibition at 0.3 (gastric acid secretion) | TD50 at 8 h (Diarrheal assay in rats)
COC(=O)CC/C=C\CC[C@H]1C(=O)C[C@@H](O)[C@@H]1/C=C/C[C@@](O)(/C=C/C1=CCCC1)CF (relative stereo) [Example 1, (±)-methyl 7-[2β-[6-(1-cyclopenten-1-yl)-4R-(fluoromethyl)-4-hydroxy-1E,5E-hexadienyl]-3α-hydroxy-5-oxo-lo-cyclopentyl]-4Z-heptenoate] | virtually no decomposition products were observed | 1 µg/kg | > 3160 μ/kg |  |  | 
COC(=O)CC/C=C\CC[C@H]1C(=O)C[C@@H](O)[C@@H]1/C=C/C[C@@](O)(/C=C/C1=CCCC1)C(F)F (relative stereo) [Example 3, (±)-methyl 7-[2β-[6-(1-cyclopenten-1-yl)-4R-(difluoromethyl)-4-hydroxy-1E,5E-hexadienyl]-3α-hydroxy-5-oxo-1α-cyclopentyl]-4Z-heptenoate] |  | 10 µg/kg | > 3160 μ/kg | > 1 µg/kg |  | 
COC(=O)CC/C=C\CC[C@H]1C(=O)C[C@@H](O)[C@@H]1/C=C/C[C@@](O)(/C=C/C1=CCCC1)C(F)(F)F (relative stereo) [Example 4, (±)-methyl 7-[2β-[6-(1-cyclopenten-1yl)-4R-hydroxy-4-(trifluoromethyl)-1E,5E-hexadienyl]-3α-hydroxy-5-oxo-1α-cyclopentyl]-4Z-heptenoate] |  | 100 µg/kg | > 3160 μ/kg | > 0.1 µg/kg |  | 
COC(=O)CC/C=C\CC[C@H]1C(=O)C[C@@H](O)[C@@H]1/C=C/C[C@@](O)(/C=C/C1=CCCC1)CCl (relative stereo) [Example 5, (±)-methyl 7-[2β-[4R-(chloromethyl)-6-(1-cyclopenten-1-yl)-4-hydroxy-1E, 5E-hexadienyl]-3α-hydroxy-5-oxo-1α-cyclopentyl]-4Z-heptenoate] |  | 10 µg/kg |  | > 0.1 µg/kg |  | 
COC(=O)CC/C=C\CC[C@H]1C(=O)C[C@@H](O)[C@@H]1/C=C/C[C@@](C)(O)/C=C/C=C/C(F)(F)F (relative stereo) [Example 6, (±)-methyl 11α,16R-dihydroxy-16-methyl-9-oxo-20-(trifluoromethyl) prosta-4Z,13E,17E,19E-tetraen-1-oate] |  |  |  |  | 84% | 
COC(=O)CC/C=C\CC[C@H]1C(=O)C[C@@H](O)[C@@H]1/C=C/C[C@@](C)(O)/C=C/C=C(\C)C(F)(F)F (relative stereo) [Example 7, (±)-methyl 11α,16R-dihydroxy-16,20-dimethyl-9-oxo-20-(trifluoromethyl) prosta-4Z,13E,17E, 19E-tetraen-1-oate] |  | 50 µg/kg |  |  | 74% | 
COC(=O)CC/C=C\CC[C@H]1C(=O)C[C@@H](O)[C@@H]1/C=C/C[C@@](C)(O)/C=C/C(F)=C(C)C (relative stereo) [Example 8, (±)-methyl 19-fluoro-11α,16R-dihydroxy-16,20,20-trimethyl-9-oxoprosta-4Z,13E,17E, 19-tetraen-1-oate] |  | 1 µg/kg |  |  |  | 
COC(=O)CC/C=C\CC[C@H]1C(=O)C[C@@H](O)[C@@H]1/C=C/C[C@@](C)(O)/C=C/C=C(Cl)Cl (relative stereo) [Example 9, (±)-methyl 20,20-dichloro-11α,16R-dihydroxy-16-methyl-9-oxoprosta-4Z,13E,17E,19-tetraen-1-oate] |  | 2.5 µg/kg |  |  |  | 1000 µg/kg
COC(=O)CC/C=C\CC[C@H]1C(=O)C[C@@H](O)[C@@H]1/C=C/C[C@@](O)(/C=C/C=C(C)C)CF (relative stereo) [Example 10, methyl 16R-(fluoromethyl)-11α,16-dihydroxy-20,20-dimethyl-9-oxoprosta-4Z,13E,17E,19-tetraen-1-oate] |  | 25 µg/kg | > 3160 μ/kg | < 0.3 µg/kg |  | 
COC(=O)CC/C=C\CC[C@H]1C(=O)C[C@@H](O)[C@@H]1/C=C/C[C@@](O)(/C=C/C1=CCCC1)CF [Example 2, methyl 7-[2β-[6-(1-cyclopenten-1-yl)-4R-(fluoromethyl)-4-hydroxy-1E,5E-hexadienyl]-3α-hydroxy-5-oxo-1R,1α-cyclopentyl]-4Z-heptenoate] |  | 1 µg/kg | > 3160 μ/kg |  |  | 
